Consider 16 compounds from patent publication US5945451A, “Fluorobutenyl(thio)ethers used as pesticides” (Bayer Aktiengesellschaft, priority 1994, dated 1999).

For one series, the system named is Meloidogyne incognita. In words: Critical concentration test/nematodes. As to conditions: 20 ppm in soil; lettuce root galls after three weeks. In kind it is in vivo. How it is done: Critical concentration test/nematodes
Test nematode: Meloidogyne incognita
Solvent: 3 parts by weight of acetone
(§1) Emulsifier: 1 part by weight of alkylaryl polyglycol ether
To produce a suitable preparation of active compound, 1 part by weight of active compound is mixed with the stated amount of solvent, the stated amount of emulsifier is added and the concentrate is diluted with water to the desired concentration.
The preparation of active compound is intimately mixed with soil which is severely infested with the test nematodes. The concentration of the active compound in the preparation is of practically no importance, only the amount of active compound per unit volume of soil, which is given in ppm (=mg/l), being decisive. The treated soil is transferred into pots, lettuce is sown in, and the pots are kept at a greenhouse temperature of 25° C.
After three weeks, the lettuce roots are checked for infestation with nematodes (root galls) and the degree of efficacy of the active compound in % is determined. The degree of efficacy is 100% when infestation is avoided completely and 0% when the infestation level is just as high as in the control plants in untreated, but equally infested, soil.

For a further series, the system named is Lucilia cuprina larvae. In words: Blowfly larvae test. As to conditions: after 24 hours, horse meat, read-out: destruction. The series is classed as in vivo. How it is done: Test animals: Lucilia cuprina larvae
Solvent: 35 parts by weight of ethylene glycol monomethyl ether
Emulsifier: 35 parts by weight of nonylphenol polyglycol ether
For the purpose of producing a suitable formulation, 3 parts by weight of the active compound are mixed with 7 parts of the abovementioned mixture of solvent and emulsifier, and the emulsion concentrate thus obtained is diluted with water to the particular concentration desired.
About 20 Lucilia cuprina larvae are introduced into a test tube which contains approx. 1 cm^3 of horse meat and 0.5 ml of the preparation of active compound to be tested. After 24 hours, the efficacy of the preparation of active compound is determined. 100% means that all blowfly larvae have been killed; 0% means that none of the blowfly larvae have been killed.

Series [1] relates to tobacco budworm (Heliothis virescens). Description: whole plant or invertebrate. As to conditions: 168 h, read-out: destruction. The series is classed as in vivo. Here is the method:
(§2) Solvent: 7 parts by weight of dimethylformamide
as §1
(§3) To produce a suitable preparation of active compound, 1 part by weight of active compound is mixed with the stated amount of solvent and the stated amount of emulsifier, and the concentrate is diluted with water to the desired concentration.
Soya bean shoots (Glycine max) are treated by being dipped into the preparation of active compound of the desired concentration and are infested with tobacco budworm (Heliothis virescens) while the leaves are still moist.
(§4) After the desired period of time, the destruction in % is determined. 100% means that all the caterpillars have been killed; 0% means that none of the caterpillars have been killed.

Series [2] has as its system mustard beetle larvae (Phaedon cochleariae). Description: Phaedon larvae test. The series is classed as in vivo. As to conditions: 168 h, after 7 days, dipped cabbage leaves, read-out: destruction. How it is done:
as §2, §1, §3
After the desired period of time, the destruction in % is determined. 100% means that all the beetle larvae have been killed; 0% means that none of the beetle larvae have been killed.

Series [3] has as its system caterpillars of the diamond-back moth (Plutella maculipennis). Description: Plutella test. As to conditions: 168 h, after 7 days, dipped cabbage leaves, read-out: destruction. The series is classed as in vivo. Here is the method: as §2, §1, §3
Cabbage leaves (Brassica oleracea) are treated by being dipped into the preparation of active compound of the desired concentration and are infested with caterpillars of the diamond-back moth (Plutella maculipennis) while the leaves are still moist.
as §4

The subject of series [4] is larvae of the green rice leafhopper (Nephotettix cincticeps). Description: Nephotettix test. The series is classed as in vivo. As to conditions: 144 h, read-out: destruction. Here is the method:
as §2, §1, §3
Rice seedlings (Oryzae sativa) are treated by being dipped into the preparation of active compound of the desired concentration and are infested with larvae of the green rice leafhopper (Nephotettix cincticeps) while the seedlings are still moist.
After the desired period of time, the destruction in % is determined. 100% means that all the leafhoppers have been killed; 0% means that none of the leafhoppers have been killed.

The nature of series [5]: log p, octanol/water partition coefficient determined by reversed-phase HPLC. The series is classed as physicochemical. As to conditions: for chromatographic logP: pH not stated; for chromatographic logD: pH 2. The text has this:
* log p = Logarithm of the partition coefficient p of the substance
between the solvents octanol and water, determined experimentally by mean

For the compound `O=C(CSCCC(F)=C(F)F)OCc1ccccc1` [Example I-2], the degree of efficacy in the series on Meloidogyne incognita was 100%.
Regarding `CN(C)C(=O)CSCCC(F)=C(F)F` [Example I-9], the mortality at 1000 ppm with Lucilia cuprina larvae was determined as 100%.
As to `O=C(CSCCC(F)=C(F)F)Nc1ccc(F)cc1` [Example I-10], the mortality at 0.1 % in series [1] was determined as 85%.
`O=C(CSCCC(F)=C(F)F)Nc1ccccn1` [Example I-11]: the degree of efficacy in the series with Meloidogyne incognita is on record as 100%.
Take `CC(C)N(C(=O)CSCCC(F)=C(F)F)c1ccc(Cl)c(Cl)c1` [Example I-13]: the mortality at 0.1 % in series [2] and in series [3] was 100% in each case.
As for `CC(C)N(C(=O)CSCCC(F)=C(F)F)c1cccc(F)c1` [Example I-14], the mortality at 0.1 % in series [4] and in series [3] was 100% in each case.
Consider `O=C(O)CNC(=O)CSCCC(F)=C(F)F` [Example I-15], for which, in the series on Meloidogyne incognita, the degree of efficacy was determined as 100%.
On to `CC(NC(=O)CSCCC(F)=C(F)F)C(=O)O` (stereo not drawn) [Example I-16], for which the degree of efficacy in the series with Meloidogyne incognita worked out at 100%.
In turn, `O=C(CSCCC(F)=C(F)F)NC(Cc1ccccc1)C(=O)O` (stereo not drawn) [Example I-17] gave a degree of efficacy with Meloidogyne incognita of 100%.
For the compound `CC(NC(=O)CSCCC(F)=C(F)F)c1ccccc1` (stereo not drawn) [Example I-18], the chromatographic logP (usually a lipophilicity value derived from retention on a column) in series [5] came out at 2.77.
On to `O=C(CSCCC(F)=C(F)F)NCc1ccc(Cl)cc1` [Example I-19], for which the chromatographic logP in series [5] was 2.94. This chromatographic logP and that of the compound before are within 0.2 log units of each other.
In turn, `COC(=O)CSCCC(F)=C(F)F` [Example I-20] returned a chromatographic logP in series [5] of 2.43.
As to `CC(C)COC(=O)CSCCC(F)=C(F)F` [Example I-21], the chromatographic logP in series [5] is 3.74.
In the case of `NC(=O)CSCCC(F)=C(F)F` [Example I-22], the chromatographic logD (as a rule, a lipophilicity value derived from retention on a column) in series [5] worked out at 1.22.
The compound `O=C(CSCCC(F)=C(F)F)NCc1ccccc1` [Example I-23] came in with a chromatographic logD in series [5] of 2.56.
As to `O=C(Nc1ccc(Cl)c(Cl)c1)C(SCCC(F)=C(F)F)c1ccccc1` (stereo not drawn) [Example I-46], the chromatographic logD in series [5] worked out at 4.59.
